The source of these data is US20210047290A1, “SPIRO COMPOUND AS INDOLEAMINE-2,3-DIOXYGENASE INHIBITOR” (SHANGHAI INSTITUTE OF ORGANIC CHEMISTRY, CHINESE ACADEMY OF …, priority 2018, published 2021).

Broadly, the IC50 is the concentration needed to halve the response being measured.

The target in experiment [1] is T1, IDO enzyme (Homo sapiens, UniProt P14902).
T1 construct: made in house; host or cells: E. coli BL21 (pET28a-IDO plasmid)
The experiment in a line: IDO enzyme inhibitory activity test. It counts as biochemical. As to conditions: recombinant IDO, D-Trp substrate, reading at 321 nm for 40 min. How it is done: (1) Induced Expression and Purification Method of IDO Protein
Firstly, DO gene was amplified with PCR, and the amplified PCR product was recycled. Digestion (2 h under 37° C.), gel running and recycling were carried out on the pET28a plasmid (purchased from Shanghai Baomanbio Co., Ltd.) and IDO gel with two restriction enzymes (EcoR I and Xho I). T4 ligase was connected with the product overnight, added into DH5α competence, placed on the ice for 30 min and subjected to thermal shock at 42° C. for 90 s.
BL21 which contained pET28a-IDO plasmid was shaken vigorously at 37° C. till OD600 was 0.6-0.8, added into hemin (final concentration: 40 μM) and 0.5 mM IPTG (isopropyl-3-D-IPTG) and induced under 16° C. for 20 h; after induction, thallus were collected centrifugally at 4° C. and 6,000 rpm, washed with 50 mM PBS (pH 7.5) and collected again centrifugally.
The collected thallus were suspended again with buffer solution (50 mM PBS pH 7.5). An appropriate amount of 100×PMSF was added. The thallus were disrupted with cell disruption instrument (1,400 bar) at 4° C. for three times. The split bacteria were centrifuged at 18,000×g for 45 min. The sediment was removed but supernatant was retained and filtered with a 0.45 μm film at 4° C.; the nickel column was balanced with lysis buffer (50 mM PBS pH7.5) by 3 column volumes.
The supernatant was loaded on the nickel column and washed with wash solution (50 mM PBS pH7.5, 50 mM imidazole) by 4 column volume. Finally, protein was eluted with eluant (50 mM PBS pH7.5, 250 mM imidazole); dialyzed for 6 h with dialysis solution (50 mM PBS pH7.5), concentrated, sub-packaged, quickly frozen with liquid nitrogen and stored at −80° C. for backup.
(2) Test Method for IDO Enzyme Inhibitory Activity
Firstly, the compound was diluted by triple gradient. 1 μL of each concentration was added into a 96-well plate; 50 μL of IDO Enzyme solution PBS (pH 7.5; final concentration: 50 mM) was added: 25 μL of substrate 1 (methylene blue, final concentration: […]; catalase, final concentration: 0.2 μg/L; PBS (pH 7.5; final concentration: 50 mM) mixture and 25 μL of substrate 2 (D-Trp, final concentration: 1.5 mM; sodium ascorbate, final concentration: 20 mM; PBS (pH 7.5), final concentration 50 mM) mixture were added for starting the reaction. Finally, OOD321 nm reading was carried out for 40 min.

Experiment [2] concerns the target T2, IDO in Hela cells (Homo sapiens, UniProt P14902).
T2 construct: endogenous in cells; host or cells: HeLa cells stimulated with human interferon γ
In words: Test of cellular activity (kynurenine formation in interferon γ stimulated Hela cells). It counts as cell-based. The note with it: head prints IPS cells, method: Hela cells, 48 h incubation, read at 480 nm. On the procedure:
(3) Test Method of Cellular Activity
Hela cells (80 μL) was inoculated on a 96-well plate (5×10^3 for each well) to grow overnight. After the compound was diluted the next day, 1 μL of diluent and 100 μL of culture medium which contains human interferon γ (final concentration: 50 ng/m) were added into the 96-well plate to make the final volume reach […]. After incubating for 48 h, 80 μL of supernate was transferred from each well to a new […]. 10 μL 6.1N trichloroacetic acid was added into each well for mixing and incubation at 50° C. for 30 min, and […] N formyl-kynurenin into kynurenine. The reaction mixture was centrifuged at 2,500 rpm for 10 min, 70 μL of supernatant of each well was transferred to a new 96-well plate and mixed with 100 μL of 2% (w/v) dimethylaminobenzaldehyde acetic acid solution. After placing for 5-10 min, measurement was carried out at 480 nm with the SPECTRAmax i13 reader.

Where only a bound is given, the exact number is not on record here.

T1 sequence (P14902 whole entry): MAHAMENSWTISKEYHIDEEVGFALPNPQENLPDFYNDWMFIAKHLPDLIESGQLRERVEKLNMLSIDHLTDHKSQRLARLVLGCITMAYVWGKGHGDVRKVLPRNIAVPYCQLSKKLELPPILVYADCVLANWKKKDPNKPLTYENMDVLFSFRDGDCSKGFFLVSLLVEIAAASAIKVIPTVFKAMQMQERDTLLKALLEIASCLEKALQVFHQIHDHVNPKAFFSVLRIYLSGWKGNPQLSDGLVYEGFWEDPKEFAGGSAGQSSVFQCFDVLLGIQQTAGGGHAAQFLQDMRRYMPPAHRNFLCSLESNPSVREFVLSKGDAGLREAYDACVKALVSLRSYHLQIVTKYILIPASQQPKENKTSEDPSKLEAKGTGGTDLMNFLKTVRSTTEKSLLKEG
T2 sequence (P14902 whole entry): as above

With `O=S(=O)(NC1CCC12CCC(c1ccnc3ccc(F)cc13)CC2)c1ccc(Cl)cc1` (single isomer, unassigned) [Example 13B, (±) 4-chloro-N-(7-(6-fluoroquinolin-4-ylspiro[3.5]nonan-1-yl)benzenesulfonamide], the IC50 in experiment [1] stood at 157 µM.
Same read-out and setting: next, `O=C(Nc1ccc(Cl)cc1)C1CCC2(CC1)CC(c1ccnc3ccc(F)cc13)C2` (single isomer, unassigned) [Example 22A, N-(4-chlorophenyl)-2-(6-fluoroquinoline-4-yl)spiro[3.5]nonane-7-carboxamide]: 4.16 µM; `O=C(Nc1ccc(Cl)cc1)NC1CC2(CCC(c3ccnc4ccc(F)cc34)CC2)C1` (racemic) [Example 16, (±) 1-(4-chlorophenyl)-3-(7-(6-fluoroquinolin-4-yl)spiro[3.5]nonan-2-yl)urea]: 3.2 µM; `O=C(Nc1ccc(Cl)cc1)C1CC12CCC(c1ccnc3ccccc13)CC2` (racemic) [Example 2B, (±)-(cis/trans)-N-(4-chlorophenyl)-6-(quinolin-4-yl)spiro[2.5]octane-1-carboxamide]: 0.5 µM.
On the same count and under the same terms, next, `O=C(Nc1ccc(Cl)cc1)NC1CC12CCC(c1ccnc3ccc(F)cc13)CC2` (racemic) [Example 9, (±)-(cis/trans)-1-(4-chlorophenyl)-3-(6-(6-fluoroquinolin-4-yl)spiro[2.5]octan-1-yl)urea]: 3 µM.
Turning to `O=C(Nc1cccc(F)c1)C1CC2(CCC(c3ccnc4ccc(F)cc34)CC2)C1` (single isomer, unassigned) [Example 31, N-(3-fluorophenyl)-7-(6-fluoroquinoline-4-yl)spiro[3.5]nonane-2-carboxamide], the IC50 in experiment [2] turned out to be 1.97 nM.
As to `O=C(Nc1ccccn1)C1CC2(CCC(c3ccnc4ccc(F)cc34)CC2)C1` (single isomer, unassigned) [Example 27], the IC50 in experiment [2] is more than 10 nM.
`O=C(Nc1cccc(Br)c1)C1CCC12CCC(c1ccnc3ccc(F)cc13)CC2` (racemic) [Example 14A, (±)-N-(3-bromophenyl)-7-(6-fluoroquinolin-4-yl)spiro[3.5]nonane-1-carboxamide]: the IC50 in experiment [1] amounted to 7.6 µM.
The molecule `N#Cc1ccc(NC(=O)C2CC3(CCC(c4ccnc5ccc(F)cc45)CC3)C2)cc1` (single isomer, unassigned) [Example 49, N-(4-cyanophenyl)-7-(6-fluoroquinolin-4-yl)spiro[3.5]nonane-2-carboxamide] returned an IC50 in experiment [2] of 1.32 nM.
For the molecule `O=C(Nc1ccc(Cl)cc1)NC1CCC12CCC(c1ccnc3ccc(F)cc13)CC2` (racemic) [Example 11A, (±) 1-(4-chlorophenyl)-3-(7-(6-fluoroquinolin-4-yl)spiro[3.5]nonan-1-yl)urea], in experiment [1], the IC50 came out at 6.9 µM.
`O=C(Nc1ccccc1)C1CC12CCC(c1ccnc3ccc(F)cc13)CC2` (racemic) [Example 7, (±)-(cis/trans)-6-(6-fluoroquinolin-4-yl)-N-phenylspiro[2.5]octane-1-carboxamide]: the IC50 in experiment [1] was found to be 0.99 µM.
Same read-out and setting: next, `O=C(Nc1ccc(Cl)cc1)NC1CCC12CCC(c1ccnc3ccc(F)cc13)CC2` (racemic) [Example 11B, (±) 1-(4-chlorophenyl)-3-(7-(6-fluoroquinolin-4-yl)spiro[3.5]nonan-1-yl)urea]: 2.7 µM.
Take `O=S(=O)(NC1CCC12CCC(c1ccnc3ccc(F)cc13)CC2)c1ccc(Cl)cc1` (single isomer, unassigned) [Example 13A, (±) 4-chloro-N-(7-(6-fluoroquinolin-4-yl)spiro[3.5]nonan-1-yl)benzenesulfonamide]: the IC50 in experiment [1] came out at 20 µM.
On to `O=C(Nc1ccc(-c2ccccc2)cc1)C1CC2(CCC(c3ccnc4ccc(F)cc34)CC2)C1` (single isomer, unassigned) [Example 43, N-([1,1′-biphenyl]-4-yl)-7-(6-fluoroquinolin-4-yl)spiro[3.5]nonane-2-carboxamide], for which inhibition in experiment [2] was half-maximal at 3.07 nM (IC50).
As for `O=C(Nc1ccc(Cl)cc1)C1CCC2(CC1)CC(c1ccnc3ccc(F)cc13)C2` (single isomer, unassigned) [Example 22B, N-(4-chlorophenyl)-2-(6-fluoroquinoline-4-yl)spiro[3.5]nonane-7-carboxamide], the IC50 in experiment [1] stood at 3.44 µM.
In experiment [2], `O=C(Nc1ccc(C(F)(F)F)c(Cl)c1)C1CC2(CCC(c3ccnc4ccc(F)cc34)CC2)C1` (single isomer, unassigned) [Example 45, N-(3-chloro-4-(trifluoromethyl)phenyl)-7-(6-fluoroquinoline-4-yl)spiro[3.5]nonane-2-carboxamide] registered an IC50 of more than 10 nM.
Turning to `O=C(Nc1ccccc1F)C1CC2(CCC(c3ccnc4ccc(F)cc34)CC2)C1` (single isomer, unassigned) [Example 46, N-(2-fluorophenyl)-7-(6-fluoroquinoline-4-yl)spiro[3.5]nonane-2-carboxamide], the IC50 in experiment [2] was 2.74 nM.
Still for that read-out and setting: next, `O=C(Nc1ccc(F)c(F)c1)C1CC2(CCC(c3ccnc4ccc(F)cc34)CC2)C1` (single isomer, unassigned) [Example 40, N-(3,4-difluorophenyl)-7-(6-fluoroquinoline-4-yl)spiro[3.5]nonane-2-carboxamide]: 3.05 nM; `O=C(Nc1cccc(C(F)(F)F)c1)C1CC2(CCC(c3ccnc4ccc(F)cc34)CC2)C1` [Example 39, (2S,4s,7S)-7-(6-fluoroquinoline-4-yl)-N-(3-(trifluoromethyl)phenyl)spiro[3.5]nonane-2-carboxamide]: more than 10 nM; `O=C(Nc1ccc(Br)c(F)c1)C1CC2(CCC(c3ccnc4ccc(F)cc34)CC2)C1` (single isomer, unassigned) [Example 37, N-(3-fluoro-4-bromophenyl)-7-(6-fluoroquinoline-4-yl)spiro[3.5]nonane-2-carboxamide]: more than 10 nM.
As to `O=C(Nc1cccc(Br)c1)C1CC2(CCC(c3ccnc4ccc(F)cc34)CC2)C1` (single isomer, unassigned) [Example 32, N-(3-bromophenyl)-7-(6-fluoroquinoline-4-yl)spiro[3.5]nonane-2-carboxamide], in experiment [2], the IC50 is more than 10 nM.
As for `O=C(Nc1ccccc1Br)C1CC2(CCC(c3ccnc4ccc(F)cc34)CC2)C1` (single isomer, unassigned) [Example 47, N-(2-bromophenyl)-7-(6-fluoroquinoline-4-yl)spiro[3.5]nonane-2-carboxamide], in experiment [2], the IC50 was more than 10 nM.
On the same count and under the same terms, next, `O=C(Nc1ccccc1Cl)C1CC2(CCC(c3ccnc4ccc(F)cc34)CC2)C1` (single isomer, unassigned) [Example 29, N-(2-chlorophenyl)-7-(6-fluoroquinolin-4-yl)spiro[3.5]nonane-2-carboxamide]: more than 10 nM.
`O=C(NC1CC2(CCC(c3ccnc4ccc(F)cc34)CC2)C1)c1ccc(Cl)cc1` (racemic) [Example 17, (±) 4-chloro-N-(7-(6-fluoroquinolin-yl)spiro[3.5]nonan-2-yl)benzamide]: the IC50 in experiment [1] was determined as 0.48 µM.
On the same count and under the same terms, next, `O=C(Nc1cccc(Br)c1)C1CCC12CCC(c1ccnc3ccc(F)cc13)CC2` (racemic) [Example 14B, (±)-N-(3-bromophenyl)-7-(6-fluoroquinolin-4-yl)spiro[3.5]nonane-1-carboxamide]: 7 µM.
With `O=C(Nc1ccc(Br)cc1)C1CC2(CCC(c3ccnc4ccc(F)cc34)CC2)C1` (single isomer, unassigned) [Example 26, N-(4-bromophenyl)-7-(6-fluoroquinoline-4-yl)spiro[3.5]nonane-2-carboxamide], the IC50 in experiment [2] is 0.79 nM.
